PubChem BioAssay AID256 (DTP/NCI, 2004)
Toxic doses and inconclusive results are not listed. Rule for the calls: active = survival T/C of 150% or more; inactive = T/C below 125% in these data.

Test system: CD2F1 mice, L1210 leukemia ip, survival T/C
Test: NCI In Vivo Anticancer Drug Screen. Data for tumor model L1210 Leukemia (intraperitoneal) in CD2F1 (CDF1) mice
Details: endpoint: mean survival time, higher = longer survival
Method in brief: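 Transplantable tumor in mice; compound-treated vs vehicle-treated groups. Read-out = treated/control ratio of the measured endpoint.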

[1] = dose: 100.0 mg/kg/injection, schedule: Q04DX003 (ip), vehicle: saline with Tween-80
[2] = dose: 200.0 mg/kg/injection, schedule: Q04DX003 (ip), vehicle: saline with Tween-80
[3] = dose: 400.0 mg/kg/injection, schedule: Q04DX003 (ip), vehicle: saline with Tween-80
[4] = dose: 100.0 mg/kg/injection, schedule: Q01DX009 (ip), vehicle: saline with Tween-80
[5] = dose: 200.0 mg/kg/injection, schedule: Q01DX009 (ip), vehicle: saline with Tween-80
[6] = dose: 400.0 mg/kg/injection, schedule: Q01DX009 (ip), vehicle: saline with Tween-80

Measured: T/C

CNc1ccc(CC(=O)O)cc1
inactive: dose: 100.0 mg/kg/injection, schedule: Q04DX003 (ip), vehicle: Klucel (hydroxypropylcellulose) (HPC) 92 % of control | dose: 200.0 mg/kg/injection, schedule: Q04DX003 (ip), vehicle: Klucel (hydroxypropylcellulose) (HPC) 93 % of control | dose: 400.0 mg/kg/injection, schedule: Q04DX003 (ip), vehicle: Klucel (hydroxypropylcellulose) (HPC) 96 % of control

Brc1ccc([Si](c2ccccc2)(c2ccccc2)c2ccc(-c3ccccc3)cc2)cc1
inactive: dose: 100.0 mg/kg/injection, schedule: Q01DX009 (ip), vehicle: other 102 % of control | dose: 200.0 mg/kg/injection, schedule: Q01DX009 (ip), vehicle: other 96 % of control | dose: 400.0 mg/kg/injection, schedule: Q01DX009 (ip), vehicle: other 96 % of control

CN(C)S(=O)(=O)C#Cc1ccccc1
inactive: [1] 104 % of control | [2] 97 % of control | [3] 102 % of control

O=C(O)C1C2CCCCC21 (stereo not given)
inactive: [4] 105 % of control | [1] 98 % of control | [5] 94 % of control | [2] 100 % of control | [6] 101 % of control | [3] 94 % of control

N#CCN(CC#N)CC#N
inactive: dose: 1.56 mg/kg/injection, schedule: Q01DX009 (ip), vehicle: saline 97 % of control | dose: 3.13 mg/kg/injection, schedule: Q01DX009 (ip), vehicle: saline 92 % of control | dose: 6.25 mg/kg/injection, schedule: Q01DX009 (ip), vehicle: saline 100 % of control

Cc1cc2c(=O)c(C)c[nH]c2cc1Cl
inactive: dose: 50.0 mg/kg/injection, schedule: Q01DX009 (ip), vehicle: Klucel (hydroxypropylcellulose) (HPC) 89 % of control | dose: 100.0 mg/kg/injection, schedule: Q01DX009 (ip), vehicle: Klucel (hydroxypropylcellulose) (HPC) 86 % of control

Nc1nc(=O)c2[nH]cnc2n1O
inactive: dose: 12.5 mg/kg/injection, schedule: Q04DX003 (ip), vehicle: acetone 97 % of control | dose: 16.5 mg/kg/injection, schedule: Q01DX009 (ip), vehicle: saline 102 % of control | dose: 25.0 mg/kg/injection, schedule: Q01DX009 (ip), vehicle: saline 102 % of control | dose: 25.0 mg/kg/injection, schedule: Q04DX003 (ip), vehicle: acetone 94 % of control | dose: 50.0 mg/kg/injection, schedule: Q04DX003 (ip), vehicle: acetone 97 % of control | dose: 55.0 mg/kg/injection, schedule: Q01DX009 (ip), vehicle: saline 118 % of control

CC(C)CN1CCOCC1
inactive: dose: 50.0 mg/kg/injection, schedule: Q01DX009 (ip), vehicle: saline with Tween-80 95 % of control | [4] 97 % of control | [1] 107 % of control | [2] 98 % of control

[C-]#[N+]C1CCCCC1.[C-]#[N+]C1CCCCC1.[Pd].[S-]c1ccccc1.[S-]c1ccccc1
inactive: dose: 3.13 mg/kg/injection, schedule: Q04DX003 (ip), vehicle: distilled water + Tween-80 102 % of control | dose: 6.25 mg/kg/injection, schedule: Q04DX003 (ip), vehicle: distilled water + Tween-80 99 % of control | dose: 12.5 mg/kg/injection, schedule: Q04DX003 (ip), vehicle: distilled water + Tween-80 89 % of control | dose: 25.0 mg/kg/injection, schedule: Q04DX003 (ip), vehicle: distilled water + Tween-80 91 % of control | dose: 50.0 mg/kg/injection, schedule: Q04DX003 (ip), vehicle: distilled water + Tween-80 95 % of control | dose: 100.0 mg/kg/injection, schedule: Q04DX003 (ip), vehicle: distilled water + Tween-80 89 % of control | dose: 200.0 mg/kg/injection, schedule: Q04DX003 (ip), vehicle: distilled water + Tween-80 95 % of control

CCNC(=O)Nc1nc2ccccc2s1
inactive: dose: 100.0 mg/kg/injection, schedule: Q04DX002 (ip), vehicle: saline with Tween-80 103 % of control | dose: 200.0 mg/kg/injection, schedule: Q04DX002 (ip), vehicle: saline with Tween-80 103 % of control | dose: 400.0 mg/kg/injection, schedule: Q04DX002 (ip), vehicle: saline with Tween-80 92 % of control

CCCCCC#CC1OC12CCCCC2 (stereo not given)
inactive: dose: 12.5 mg/kg/injection, schedule: Q01DX009 (sc), vehicle: saline with Tween-80 97 % of control | dose: 25.0 mg/kg/injection, schedule: Q01DX009 (sc), vehicle: saline with Tween-80 104 % of control | dose: 50.0 mg/kg/injection, schedule: Q01DX009 (sc), vehicle: saline with Tween-80 98 % of control | dose: 100.0 mg/kg/injection, schedule: Q01DX009 (sc), vehicle: saline with Tween-80 103 % of control | dose: 200.0 mg/kg/injection, schedule: Q01DX009 (sc), vehicle: saline with Tween-80 98 % of control

Oc1c(CN2CCOCC2)cc(CN2CCOCC2)cc1CN1CCOCC1
inactive: [4] 100 % of control | [5] 95 % of control | [6] 100 % of control

O=C1C(Cl)=C(c2ccccc2)C(=O)C(Cl)=C1c1ccccc1
inactive: dose: 50.0 mg/kg/injection, schedule: Q04DX003 (ip), vehicle: saline with Tween-80 103 % of control | [1] 109 % of control | [2] 107 % of control

O=C(/C=C/c1ccco1)c1ccc2ccccc2c1
inactive: dose: 100.0 mg/kg/injection, schedule: Q01DX001 (ip), vehicle: saline 102 % of control | dose: 200.0 mg/kg/injection, schedule: Q01DX001 (ip), vehicle: saline 94 % of control | dose: 400.0 mg/kg/injection, schedule: Q01DX001 (ip), vehicle: saline 94 % of control

NC(=S)NCc1ccccc1
inactive: [4] 89 % of control | [1] 105 % of control | [5] 91 % of control | [2] 101 % of control | [3] 112 % of control

O=C(O)c1ccccc1NCNc1ccccc1C(=O)O
inactive: [1] 100 % of control | [2] 93 % of control | [3] 110 % of control

C[n+]1csc(=S)[nH]1
inactive: dose: 100.0 mg/kg/injection, schedule: Q04DX003 (ip), vehicle: saline 105 % of control | dose: 200.0 mg/kg/injection, schedule: Q04DX003 (ip), vehicle: saline 109 % of control | dose: 400.0 mg/kg/injection, schedule: Q04DX003 (ip), vehicle: saline 114 % of control

CCCCNC(C)(C)C(SSSC(c1ccc(Cl)cc1)C(C)(C)NCCCC)c1ccc(Cl)cc1 (stereo not given)
inactive: dose: 12.0 mg/kg/injection, schedule: Q04DX003 (ip), vehicle: other 97 % of control | dose: 25.0 mg/kg/injection, schedule: Q04DX003 (ip), vehicle: other 105 % of control | dose: 50.0 mg/kg/injection, schedule: Q04DX003 (ip), vehicle: other 96 % of control

O=S(=O)(/C=C\c1ccccc1)/C=C/c1ccccc1
inactive: [1] 91 % of control | [3] 86 % of control
